Reference: patent US7470543B2, “Methods for identifying ligands using competitive binding 1H NMR experiments” (Nerviano Medical Sciences S.r.l., priority 2002, dated 2008)

Columns and labels:
[1] = biological target: T1, HSA (Homo sapiens, UniProt P02768); settings: up to concentration of several hundred μM; cited from earlier work
[2] = biological target: T2, HSA (Sudlow site I) (Homo sapiens, UniProt P02768); experiment: doubly-selective R1-filtered and spin-echo 1H NMR competition binding, spy molecule warfarin; settings: 25 μM, HSA 0 to 2.5 μM
T2 construct: Fatty acid free human serum albumin (A-3782) was purchased from Sigma and used without further purification; purchased Sigma A-3782

[3] = biological target: T1, HSA; experiment: previous NMR measurement of the low affinity second binding site for Trp; settings: 20° C., measured previously by NMR
Excerpt: […]. J., 273, 641-644 (1991)) is somewhat larger. This small difference can probably be ascribed to the presence of a low affinity second binding site for Trp. […] Despite this complication, the values that are rapidly derived from the NMR screening experiments serve for most of the purposes in the early stages of drug discovery.

[4] = biological target: T1, HSA; settings: 20° C.; read-out: KD^(a) binding constant of L-Trp measured with equilibrium dialysis; cited from earlier work

T1 sequence (P02768 25-609): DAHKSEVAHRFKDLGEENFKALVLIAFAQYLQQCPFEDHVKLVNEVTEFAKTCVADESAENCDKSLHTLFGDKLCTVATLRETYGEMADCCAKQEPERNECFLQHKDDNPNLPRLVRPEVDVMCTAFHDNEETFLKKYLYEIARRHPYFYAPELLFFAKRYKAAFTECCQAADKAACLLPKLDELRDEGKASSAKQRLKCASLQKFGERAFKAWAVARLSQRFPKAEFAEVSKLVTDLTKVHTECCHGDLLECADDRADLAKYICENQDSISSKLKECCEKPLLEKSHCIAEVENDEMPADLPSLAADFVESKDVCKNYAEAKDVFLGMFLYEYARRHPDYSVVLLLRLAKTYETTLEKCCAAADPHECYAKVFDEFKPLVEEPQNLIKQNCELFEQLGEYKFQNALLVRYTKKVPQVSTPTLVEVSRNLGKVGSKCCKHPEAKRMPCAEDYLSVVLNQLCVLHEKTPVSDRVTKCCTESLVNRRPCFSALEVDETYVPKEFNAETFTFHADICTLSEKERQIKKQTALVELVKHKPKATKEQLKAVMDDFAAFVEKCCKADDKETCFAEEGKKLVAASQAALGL
T2 sequence (P02768 25-609): as above

SMILES | interaction with HSA [1] | binding of the control molecule to HSA (signal intensity as a function of protein concentration) [2] | affinity for the low affinity second binding site [3] | Kd [4] [µM]
Cc1ccc2[nH]cc(CC(N)C(=O)O)c2c1 (stereo not shown) [5-CH3 D,L Trp (2), 5-CH3 D,L Trp] | does not interact with HSA | does not bind | – | –
N[C@@H](Cc1c[nH]c2ccccc12)C(=O)O [Trp, tryptophan] | – | – | several hundreds | 23
